Results taken from patent US10076527B2, “Standardized extract and its use in the manufacture of a medicament” (priority 2006, dated 2018).

Tests used:
[1] = test system: conscious cats; details: intravenous injection; cited from earlier work
[2] = test system: conscious dogs; details: intravenous injection; cited from earlier work
[3] = test system: anesthetized dogs; details: intravenous injection; cited from earlier work
[4] = test system: isolated guinea pig ileum; details: concentration of 54 mg/ml; cited from earlier work
[5] = test system: normal mice; assay: Excretion promotion study in normal mice (India ink); type: in vivo, ICR mice; details: positive control, hypodermic injection 0.1 ml/10 g, p<0.01
Protocol: In this experiment, 50 male ICR mice weighing 23-27 g respectively were divided randomly into 5 groups with 10 per group, i.e. normal control, positive control and three dose groups at 2.48 mg/kg, 4.96 mg/kg and 9.92 mg/kg, respectively. They were fasted for 24 hours before the experiment.
The mice in the positive control group were given an injection of 0.1 ml/10 g body weight of Neostigmine hypodermically while the mice in the normal control groups were given rectal administrations of saline of 0.02 ml/10 g body weight. The mice in the three dose groups were given rectal administrations of the Muskmelon-Base extract (diluted with saline to give desired doses and given 0.02 ml/10 g body weight).
After medication, all the mice were intra-gastrically given infusions of India ink (10% ink, diluted with saline, at the dose 0.02 ml/10 g of body weight). The mice were individually put into a cage with white filter paper flooring. The time of excretion and quantity of the feces were recorded during 4-hour observation periods.

[6] = test system: mice with gastrointestinal hypo-function induced by atropine; assay: Intestine enterokinesia in mice with gastrointestinal hypo-function induced by atropine; type: in vivo, ICR mice; details: extract high dose rectal; Neostigmine 0.15 mg/kg hypodermic
Protocol: In this experiment, 66 male ICR mice weighing 22-26 g respectively were divided randomly into 6 groups with 11 per group. They were fasted for 24 hours before the experiment. The 6 groups were named as: • Normal control group, • Model group, • Positive control group, and • The three dose groups.
The mice in the normal control group were only injected saline at 0.1 ml/10 g and mice in all other groups were injected 0.25 mg/kg of Atropine hypodermic at 0.1 ml/10 g body weight.
Twenty minutes after injection Muskmelon-Base extract (diluted with the saline) was given to the mice at the doses of […] by rectal administration and saline solution was given to the mice in normal, control and the model groups. Neostigmine hypodermic injection (0.15 mg/kg) was given to the mice in the positive control group at the dose 0.1 ml/10 g body weight. A further 20 minutes later, an intragastric administration of 10% ink was given to all the mice at the dose 0.2 ml/10 g body weight.
All the mice were killed and laparotomized in 90 minutes. The intestine from the pylorus to the anus was taken out to measure the whole length of the alimentary tract. The distance from the pylorus to the front the ink impelled was measured to calculate the impelling percentage.

SMILES | diarrhea [1] | diarrhea [2] | enterokinesia [3] | effect on isolated guinea pig ileum [4] | quantity of the feces increased vs normal control ([5]; 4-hour observation) [%] | duration for the first excretion of black feces shortened vs normal control [5] [%] | muscle spasm side effect [6]
CC(C)(O)/C=C/C(=O)[C@](C)(O)[C@H]1[C@H](O)C[C@@]2(C)[C@@H]3CC=C4[C@@H](C[C@H](O)C(=O)C4(C)C)[C@]3(C)C(=O)C[C@]12C [Cucurbitacin D] | induced diarrhea | induced diarrhea | stimulated enterokinesia | did not cause any visible effect |  |  | 
CN(C)C(=O)Oc1cccc([N+](C)(C)C)c1 [Neostigmine] |  |  |  |  | 49 | 53 | always found in all mice
